{
  "source": "patent US20180235904A1",
  "about": "“CANNABIDIOL COMPOSITIONS INCLUDING MIXTURES AND USES THEREOF” (EARTH SCIENCE TECH, INC., priority 2014, published 2018)",
  "test_system": "RAW264.7 macrophages",
  "assay": "Stimulation of macrophages, TNFα production (ELISA)",
  "assay_type": "cell-based, mouse",
  "conditions": "24 h",
  "description": "RAW264.7, a mouse macrophage-like cell line, was used. The cells were cultured in DMEM, supplemented with 10% fetal calf serum (FCS), in 5% CO2, 95% air, at 37° C. in an humidified incubator.\nThe stimulation of macrophages was assessed by TNFα production, using a mouse TNFα ELISA kit.\nTo study the effects of hemp oil on macrophages, cells were seeded in a 24-well plate (2×10^5 cell/well) in 1-ml medium in each well for 12 h, and then incubated with hemp oil solution of different CBD concentrations (0-10 μM) for 24 h. Cell supernatant was collected for ELISA analysis.\nAfter the macrophages were incubated with hemp oil of different CBD concentrations (0, 1, 2.5, 5, 10 μM), the TNFα production by the cells was detected.",
  "data": [
    {"smiles": "C=C(C)[C@@H]1CCC(C)=C[C@H]1c1c(O)cc(CCCCC)cc1O", "note": "[CBD, Cannabidiol]", "values": [
      {"measurement": "TNFα production", "setting": "CBD concentration of 10 μM", "result": "induced TNFα production at a significantly higher level"},
      {"measurement": "impact on macrophages (TNFα production)", "setting": "CBD concentration range of 0 to 5 μM", "result": "not significant"}
    ]}
  ]
}
